Test results from patent US10960005B2, “Treatment of relapsed and/or refractory solid tumors and non-hodgkin's lymphomas” (CELGENE QUANTICEL RESEARCH, INC., priority 2016, dated 2021).
Like-named read-outs stand apart in the source and are kept apart here.

How the values were obtained:
[1] = test system: gene expression (ST18, FREM2) in MKL-1 cells; test: Gene expression modulation (RNA-seq, qRT-PCR) in cultured MKL-1 cells; format: cell-based, human; conditions: 10 and 100 nM, three days
Method: 22, 66, or 200 nM for qRT-PCR analysis.
Libraries were sequenced on an Illumina NextSeq® 500 System (Illumina, San Diego, Calif.) using 75 base paired-end RNA sequencing. Sequenced reads were mapped to the hg19 human genome build and differential expression was determined by analysis of variance across all replicates relative to the vehicle control
Sequenced reads were mapped to the hg19 human genome build using the Spliced Transcripts Alignment to a Reference (STAR) software tool (©Alexander Dobin, 2009-2016) and transcript counts were normalized using the Empirical Analysis of Digital Gene Expression Data in R (edgeR) and Differential gene expression analysis based on the negative binomial distribution (DESeq2) software tools (©Bioconductor, 2003-2017). Differential expression was determined by analysis of variance across all replicates relative to the vehicle control.

[2] = test system: GA0087 gastric NEC patient-derived xenograft; test: Efficacy in GA0087 gastric neuroendocrine carcinoma PDX model; conditions: for Median Tumor Volumes Day 46: head prints Day 46, title Day 53
MKL-1 hMCC cells = test: hMCC cell proliferation inhibition (2D, CellTiter-Glo), MKL-1; format: cell-based, human; conditions: MKL-1, 2D format, 7 days
Method: MKL-1 hMCC cells were cultured in vitro in RPMI-1640 culture medium (Life Technologies, Carlsbad, Calif.) containing 100 units/mL penicdlin G sodium and 100 μg/mL streptomycin sulfate (cRPMI) supplemented with 10% fetal bovine serum (FBS). MS-1 hMCC cells were cultured in vitro in cRPMI supplemented with 20% FBS.
Four to six replicates were performed at each concentration.

LNCaP cells [3] = test: LNCaP cell proliferation with rapamycin; format: cell-based, human; conditions: 100 nM Compound A + 100 nM rapamycin vs rapamycin alone; 90 hours
[4] = test system: LXFS 1129 SCLC patient-derived xenograft
[5] = test system: LXFS 573 SCLC patient-derived xenograft; test: Efficacy in LXFS 573 SCLC PDX model; format: in vivo, mice; conditions: for % TGI / TGI: Day 28
[6] = test system: H3K4me2 at ST18 and FREM2 gene loci in MKL-1 cells; test: ChIP-seq LSD1 occupancy and H3K4me2 status, MKL-1; format: cell-based, human; conditions: 100 nM, 3 days
[7] = test system: ST18 and FREM2 expression in MS-1 tumors; test: In vivo xenograft dose-response of PD biomarker gene expression, MS-1; parameters: species or system mice; conditions: 1, 2.5, or 5 mg/kg PO BID ×4.5; tumors 4 h after last dose
Excerpt: (§1) Female NSG mice bearing palpable hMCC MKL-1 and MS-1 tumors were randomized into four groups of three mice each. […] The fourth group was orally administered vehicle as a control on the BID schedule. Four hours after the last dosing, tumors were collected into RNA later and stored frozen.
(§2) Total RNA was eluted in RNase-free water and analyzed by qRT-PCR.

[8] = Pharmacokinetics after single IV and oral dose, CD-1 mice; format: in vivo; conditions: Mouse, female
Method: AUClast=area under the plasma concentration-time curve from time zero to time of last measurable concentration; Cmax=maximum plasma concentration; F=oral bioavailability; hr=hour, PK=pharmacokinetic; SD=standard deviation; t1/2 z=apparent half-life of the terminal phase of the concentration-time curve; tmax=time of Cmax. In mouse, PK parameters were determined using composite plasma samples obtained from n=3animals/time point. In other species, PK parameters are from n=3 animals and values shown are mean and SD (in parentheses).

[9] = test system: LU1480 SCLC patient-derived xenograft; test: Efficacy in LU1480 HuPrime SCLC PDX model; format: in vivo, mice
[10] = target: MDR1 (human P-gp) MDCK cells (Homo sapiens (Human), UniProt P08183); test: Permeability in MDR1 (human P-gp) MDCK cells; conditions: B→A direction
Chain of MDR1 (human P-gp) MDCK cells (P08183 whole entry): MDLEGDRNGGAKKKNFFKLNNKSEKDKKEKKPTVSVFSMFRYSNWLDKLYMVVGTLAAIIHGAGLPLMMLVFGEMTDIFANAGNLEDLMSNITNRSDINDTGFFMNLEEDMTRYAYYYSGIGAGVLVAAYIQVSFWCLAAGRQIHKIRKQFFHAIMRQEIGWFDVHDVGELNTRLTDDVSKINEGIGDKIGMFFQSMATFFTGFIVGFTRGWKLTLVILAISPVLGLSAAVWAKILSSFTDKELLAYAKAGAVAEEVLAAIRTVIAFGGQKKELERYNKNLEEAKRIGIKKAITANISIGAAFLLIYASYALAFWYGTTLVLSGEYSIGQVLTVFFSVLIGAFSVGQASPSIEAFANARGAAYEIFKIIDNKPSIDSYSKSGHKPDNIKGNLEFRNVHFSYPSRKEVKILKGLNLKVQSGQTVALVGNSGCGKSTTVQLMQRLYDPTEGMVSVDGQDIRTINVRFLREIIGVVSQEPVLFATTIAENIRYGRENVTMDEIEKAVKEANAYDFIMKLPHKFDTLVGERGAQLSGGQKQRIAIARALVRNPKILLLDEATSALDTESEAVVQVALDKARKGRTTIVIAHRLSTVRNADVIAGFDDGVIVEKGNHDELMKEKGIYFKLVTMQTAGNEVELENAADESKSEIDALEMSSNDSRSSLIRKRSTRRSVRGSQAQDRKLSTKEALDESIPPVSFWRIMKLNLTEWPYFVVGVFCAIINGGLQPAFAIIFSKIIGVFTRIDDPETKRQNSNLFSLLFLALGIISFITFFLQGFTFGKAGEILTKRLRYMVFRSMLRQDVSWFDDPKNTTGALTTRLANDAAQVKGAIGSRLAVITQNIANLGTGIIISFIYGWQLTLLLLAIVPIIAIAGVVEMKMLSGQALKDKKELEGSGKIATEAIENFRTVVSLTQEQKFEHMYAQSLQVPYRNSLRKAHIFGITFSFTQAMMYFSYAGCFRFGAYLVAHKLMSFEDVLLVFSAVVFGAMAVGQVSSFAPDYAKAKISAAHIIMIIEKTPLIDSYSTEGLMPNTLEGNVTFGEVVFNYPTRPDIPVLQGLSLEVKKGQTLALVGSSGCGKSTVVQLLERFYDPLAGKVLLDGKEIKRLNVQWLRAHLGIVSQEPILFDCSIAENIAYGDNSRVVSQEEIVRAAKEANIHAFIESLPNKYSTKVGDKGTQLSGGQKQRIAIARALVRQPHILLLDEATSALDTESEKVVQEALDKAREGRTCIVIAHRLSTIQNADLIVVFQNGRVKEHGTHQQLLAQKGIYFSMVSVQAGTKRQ

NCI-H1417 SCLC xenograft = conditions: for Median Tumor Volumes Diff.: Day 0 vs Day 65
NCI-H69 SCLC cell line = test: Antiproliferative activity, NCI-H69; format: cell-based, human; conditions: 3D assay; Calcein AM
[11] = test system: ST18 and FREM2 expression in MKL-1 tumors; test: In vivo xenograft dose-response of PD biomarker gene expression, MKL-1; parameters: species or system mice; conditions: 1, 2.5, or 5 mg/kg PO BID ×4.5; tumors 4 h after last dose
Excerpt: as §1, §2

[12] = test system: H3K4me2 at ST18 and FREM2 gene loci in MS-1 cells; test: ChIP-seq LSD1 occupancy and H3K4me2 status, MS-1; format: cell-based, human; conditions: 100 nM, 3 days
[13] = QW 1.25 mg oral dose, 60-kg human, 80% oral bioavailability assumed
LNCaP cells [14] = test: LNCaP cell proliferation with DHT and irradiation; format: cell-based, human; conditions: 100 nM Compound A + 10 nM DHT + 2Gy irradiation vs DHT with irradiation or DHT with Compound A; 220 hours
Method: LNCaP cells are androgen-sensitive human prostate adenocarcinoma cells. […] The proliferation of the LNCap cells was monitored for 220 hours.

COc1ccc(-c2c(-c3ccc(C#N)c(F)c3)nc(N3CCC(N)CC3)n(C)c2=O)cc1F [Compound A]
ST18 and FREM2 gene expression changes (upregulated) [1]: at least 2 fold
Median Tumor Volumes Day 46 ([2]; 1.5 mg base/kg PO QD × 53): 706.4 mm^3
Median Tumor Volumes Diff. ([2]; 5 mg base/kg PO QD × 53): 836.3 mm^3
Median Tumor Volumes Day 46 ([2]; 5 mg base/kg PO QD × 53): 673.2 mm^3
IC50 (MKL-1 hMCC cells): 0.0184 µM
LNCaP cell proliferation (LNCaP cells [3]): greater inhibition of LNCap cell proliferaton
AUC0-24 ([4]; 1.5 mg base/kg): 243 ng·h/mL
AUC0-24 ([4]; 5 mg base/kg): 1,262 ng·hr/mL
mean body weight losses ([4]; mouse, in vivo): < 6%
% TGI ([5]; 5 mg base/kg PO QD × 28): 72%
TGI ([5]; 5 mg base/kg oral): 78%
TGI ([5]; 7.5 mg base/kg oral): 58%
% TGI ([5]; 10 mg base/kg PO QD × 28): 71%
TGI ([5]; 10 mg/kg oral): 71%
mean body weight losses ([5]; mouse, in vivo): ≤ 3%
H3K4me2 at the LSD1 binding site of FREM2 gene [6]: increased H3K4me2
H3K4me2 at the LSD1 binding site of ST18 gene [6]: increased H3K4me2
ST18 and FREM2 change in gene expression in vivo [7]: ≥ 2 fold
AUC∞ ([8]; single IV 5 mg base/kg): 2664 ng·h/mL
CL ([8]; single IV 5 mg base/kg): 32 mL/min/kg
Vss ([8]; single IV 5 mg base/kg): 7.51 L/kg
t1/2,z ([8]; single IV 5 mg base/kg): 3.8 h
% F ([8]; single oral 10 mg base/kg): 38%
Cmax ([8]; single oral 10 mg base/kg): 510 ng/mL
t1/2,z ([8]; single oral 10 mg base/kg): 1.7 h
tmax ([8]; single oral 10 mg base/kg): 0.5 h
% TGI ([9]; 10 mg base/kg PO QD × 21): 72%
TGI ([9]; 10 mg base/kg orally for 15 days (second LU1480 experiment)): 46%
permeability [10]: 16.5 ×10⁻⁶ cm/s
mean body weight gain by end of study (NCI-H1417 SCLC xenograft; 2.5 mg base/kg): 1%
Median Tumor Volumes Diff. (NCI-H1417 SCLC xenograft; 2.5 mg base/kg PO QD × 65): 69.9 mm^3
mean body weight gain by end of study (NCI-H1417 SCLC xenograft; 5 mg base/kg): 7.5%
Median Tumor Volumes Diff. (NCI-H1417 SCLC xenograft; 5 mg base/kg PO QD × 65): 92.3 mm^3
IC50 (NCI-H69 SCLC cell line): 7 µM
ST18 and FREM2 change in gene expression in vivo [11]: ≥ 2 fold
H3K4me2 at the LSD1 binding site of ST18 gene [12]: increased H3K4me2
predicted steady state systemic exposure (AUCt) [13]: 29 ng·h/mL
LNCaP cell proliferation (LNCaP cells [14]): significantly inhibits LNCaP cell proliferation
